Consider 19 compounds from patent publication US10023558B2, “Compounds” (CHIESI FARMACEUTICI S.P.A., priority 2016, dated 2018).

What is called IC50 is the midpoint of a concentration-inhibition curve.

This assay concerns the target T1, human neutrophil elastase (HNE) (Homo sapiens, UniProt P08246).
T1 construct: purchased Sigma E8140
T1 sequence (P08246 30-247 limits assumed): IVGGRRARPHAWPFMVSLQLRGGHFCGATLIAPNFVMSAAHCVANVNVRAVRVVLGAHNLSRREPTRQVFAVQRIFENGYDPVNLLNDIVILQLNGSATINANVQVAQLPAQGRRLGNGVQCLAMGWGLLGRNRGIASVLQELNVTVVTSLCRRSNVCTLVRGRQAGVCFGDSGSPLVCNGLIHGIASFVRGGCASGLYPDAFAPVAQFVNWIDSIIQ
The assay is described as follows: HNE Enzyme Assay (fluorogenic peptide substrate MeOSuc-Ala-Ala-Pro-Val-AMC). The conditions noted are these: human leukocyte elastase 0.00072 U/mL, substrate 100 μM, 25° C., 30 minutes, at least two separate experiments; read-out: HNE inhibition (IC50 values). Type of assay: biochemical. The method in brief:
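Human leukocyte elastase (0.00072 U/mL) with 100 μM MeOSuc-AAPV-AMC in Tris pH 7.5 buffer with NaCl, CaCl2, Brij-35, 1% DMSO, 30 min at 25° C, stopped with soybean trypsin inhibitor. AMC fluorescence (ex 380/em 460 nm); IC50 from concentration-response as % inhibition of control, at least two experiments.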
Consider `Cc1c(-c2ccnn2-c2ccc(C#N)cc2)n(C(=O)N[C@@H](C)C(=O)N2CC[N+](C)(C)CC2)c(=O)n1-c1cccc(C(F)(F)F)c1` [Example 50, 4-((S)-2-{[5-[2-(4-Cyano-phenyl)-2H-pyrazol-3-yl]-4-methyl-2-oxo-3-(3-trifluoromethyl-phenyl)-2,3-dihydro-imidazole-1-carbonyl]-amino}-propionyl)-1,1-dimethyl-piperazin-1-ium benzene sulfonate], for which the 50% inhibitory concentration (IC50) was less than 1 nM. Take `Cc1c(-c2ccnn2-c2ccc(C#N)cc2)n(C(=O)NC2CC3(CC[N+](C)(C)CC3)C2)c(=O)n1-c1cccc(C(F)(F)F)c1` [Example 51, 2-{[5-[2-(4-Cyano-phenyl)-2H-pyrazol-3-yl]-4-methyl-2-oxo-3-(3-trifluoromethyl-phenyl)-2,3-dihydro-imidazole-1-carbonyl]-amino}-7,7-dimethyl-7-azonia-spiro[3.5]nonane benzene sulfonate]: the IC50 is less than 1 nM.

For `Cc1c(-c2ccnn2-c2ccc(C#N)cc2)n(C(=O)N[C@H](C)c2cc[n+](C)cc2)c(=O)n1-c1cccc(C(F)(F)F)c1` [Example 52, 4-((R)-1-{[5-[2-(4-Cyano-phenyl)-2H-pyrazol-3-yl]-4-methyl-2-oxo-3-(3-trifluoromethyl-phenyl)-2,3-dihydro-imidazole-1-carbonyl]-amino}-ethyl)-1-methyl-pyridinium benzene sulfonate], the half-inhibitory concentration (IC50) was 1 to 10 nM.

As to `Cc1c(-c2ccnn2-c2ccc(C#N)cc2)n(C(=O)N[C@H]2CC[C@@H](C[N+](C)(C)C)CC2)c(=O)n1-c1cccc(C(F)(F)F)c1` [Example 53, (Cis-4-{[5-[2-(4-cyano-phenyl)-2H-pyrazol-3-yl]-4-methyl-2-oxo-3-(3-trifiuoromethyl-phenyl)-2,3-dihydro-imidazole-1-carbonyl]-amino}-cyclohexylmethyl)-trimethyl-ammonium benzene sulfonate], the IC50 lay within 1 to 10 nM.

Turning to `Cc1c(-c2ccnn2-c2ccc(C#N)cc2)n(C(=O)N[C@H]2CC[C@@H](C[N+](C)(C)Cc3ccccc3)CC2)c(=O)n1-c1cccc(C(F)(F)F)c1` [Example 54, Benzyl-(cis-4-{[5-[2-(4-cyano-phenyl)-2H-pyrazol-3-yl]-4-methyl-2-oxo-3-(3-trifiuoromethyl-phenyl)-2,3-dihydro-imidazole-1-carbonyl]-amino}-cyclohexylmethyl)-dimethyl-ammonium bromide], the IC50 was in the range of 1 to 10 nM. With `CC[N+](C)(C)C[C@H]1CC[C@@H](NC(=O)n2c(-c3ccnn3-c3ccc(C#N)cc3)c(C)n(-c3cccc(C(F)(F)F)c3)c2=O)CC1` [Example 55, (Cis-4-{[5-[2-(4-cyano-phenyl)-2H-pyrazol-3-yl]-4-methyl-2-oxo-3-(3-trifluoromethyl-phenyl)-2,3-dihydro-imidazole-1-carbonyl]-amino}-cyclohexylmethyl)-ethyl-dimethyl-ammonium benzene sulfonate], the half-inhibitory concentration (IC50) lay in the range of 1 to 10 nM.

Turning to `Cc1c(-c2ccnn2-c2ccc(C#N)cc2)n(C(=O)N[C@H]2C[C@@H]3C[N+](C)(C)C[C@@H]3C2)c(=O)n1-c1cccc(C(F)(F)F)c1` [Example 56, (3aR,5S,6aS)-5-{[5-[2-(4-Cyano-phenyl)-2H-pyrazol-3-yl]-4-methyl-2-oxo-3-(3-trifluoromethyl-phenyl)-2,3-dihydro-imidazole-1-carbonyl]-amino}-2,2-dimethyl-octahydro-cyclopenta[c]pyrrolium benzene sulfonate], the IC50 was less than 1 nM. Next, `Cc1c(-c2ccnn2-c2ccc(C#N)cc2)n(C(=O)N[C@@H](C)C(=O)NC2CC[N+](C)(C)CC2)c(=O)n1-c1cccc(C(F)(F)F)c1` [Example 57, 4-((S)-2-{[5-[2-(4-Cyano-phenyl)-2H-pyrazol-3-yl]-4-methyl-2-oxo-3-(3-trifluoromethyl-phenyl)-2,3-dihydro-imidazole-1-carbonyl]-amino}-propionylamino)-1,1-dimethyl-piperidinium benzene sulfonate]: less than 1 nM; `Cc1c(-c2ccnn2-c2ccc(C#N)cc2)n(C(=O)N[C@@H](C)c2ccc(C[N+](C)(C)C)cc2)c(=O)n1-c1cccc(C(F)(F)F)c1` [Example 58, [4-((S)-1-{[5-[2-(4-Cyano-phenyl)-2H-pyrazol-3-yl]-4-methyl-2-oxo-3-(3-trifluoromethyl-phenyl)-2,3-dihydro-imidazole-1-carbonyl]-amino}-ethyl)-benzyl]-trimethyl-ammonium benzene sulfonate]: less than 1 nM.

In the case of `Cc1c(-c2ccnn2-c2ccc(C#N)cc2)n(C(=O)N[C@@H](C)c2nc(C[N+](C)(C)C)no2)c(=O)n1-c1cccc(C(F)(F)F)c1` [Example 60, [5-((S)-1-{[5-[2-(4-Cyano-phenyl)-2H-pyrazol-3-yl]-4-methyl-2-oxo-3-(3-trifluoromethyl-phenyl)-2,3-dihydro-imidazole-1-carbonyl]-amino}-ethyl)-[1,2,4]oxadiazol-3-ylmethyl]-trimethyl-ammonium benzene sulfonate], the IC50 was less than 1 nM. To `Cc1c(-c2ccnn2-c2ccc(C#N)cc2)n(C(=O)NC2CCN(C(=O)C[N+](C)(C)C)CC2)c(=O)n1-c1cccc(C(F)(F)F)c1` [Example 61, [2-(4-{[5-[2-(4-Cyano-phenyl)-2H-pyrazol-3-yl]-4-methyl-2-oxo-3-(3-trifluoromethyl-phenyl)-2,3-dihydro-imidazole-1-carbonyl]-amino}-piperidin-1-yl)-2-oxo-ethyl]-trimethyl-ammonium benzene sulfonate] belongs less than 1 nM. Regarding `Cc1c(-c2ccnn2-c2ccc(C#N)cc2)n(C(=O)N[C@@H](C)C(=O)N(C)CC2CC[N+](C)(C)CC2)c(=O)n1-c1cccc(C(F)(F)F)c1` [Example 62, 4-{[((S)-2-{[5-[2-(4-Cyano-phenyl)-2H-pyrazol-3-yl]-4-methyl-2-oxo-3-(3-trifluoromethyl-phenyl)-2,3-dihydro-imidazole-1-carbonyl]-amino}-propionyl)-methyl-amino]-methyl}-1,1-dimethyl-piperidinium benzene sulfonate], the IC50 was less than 1 nM. Next, `Cc1c(-c2ccnn2-c2ccc(C#N)cc2)n(C(=O)N[C@@H](C)c2nnc(C[N+](C)(C)C)o2)c(=O)n1-c1cccc(C(F)(F)F)c1` [Example 63, [5-((S)-1-{[5-[2-(4-Cyano-phenyl)-2H-pyrazol-3-yl]-4-methyl-2-oxo-3-(3-trifluoromethyl-phenyl)-2,3-dihydro-imidazole-1-carbonyl]-amino}-ethyl)-[1,3,4]oxadiazol-2-ylmethyl]-trimethyl-ammonium benzene sulfonate]: less than 1 nM; `Cc1c(-c2ccnn2-c2ccc(C#N)cc2)n(C(=O)N[C@@H](C)c2ncc(C[N+](C)(C)C)o2)c(=O)n1-c1cccc(C(F)(F)F)c1` [Example 64, [2-((S)-1-{[5-[2-(4-Cyano-phenyl)-2H-pyrazol-3-yl]-4-methyl-2-oxo-3-(3-trifluoromethyl-phenyl)-2,3-dihydro-imidazole-1-carbonyl]-amino}-ethyl)-oxazol-5-ylmethyl]-trimethyl-ammonium benzene sulfonate]: less than 1 nM; `Cc1c(-c2ccnn2-c2ccc(C#N)cc2)n(C(=O)NC2CCN(C(=O)CC[N+](C)(C)C)CC2)c(=O)n1-c1cccc(C(F)(F)F)c1` [Example 65, [3-(4-{[5-[2-(4-Cyano-phenyl)-2H-pyrazol-3-yl]-4-methyl-2-oxo-3-(3-trifluoromethyl-phenyl)-2,3-dihydro-imidazole-1-carbonyl]-amino}-piperidin-1-yl)-3-oxo-propyl]-trimethyl-ammonium benzene sulfonate]: less than 1 nM. With `Cc1c(-c2ccnn2-c2ccc(C#N)cc2)n(C(=O)NC2CCC3(CC2)CC[N+](C)(C)CC3)c(=O)n1-c1cccc(C(F)(F)F)c1` [Example 66, 9-{[5-[2-(4-Cyano-phenyl)-2H-pyrazol-3-yl]-4-methyl-2-oxo-3-(3-trifluoromethyl-phenyl)-2,3-dihydro-imidazole-1-carbonyl]-amino}-3,3-dimethyl-3-azonia-spiro[5.5]undecane benzene sulfonate], the 50% inhibitory concentration (IC50) was less than 1 nM. Next, `Cc1c(-c2ccnn2-c2ccc(C#N)cc2)n(C(=O)N[C@H]2C[C@@H](C[N+](C)(C)C)C2)c(=O)n1-c1cccc(C(F)(F)F)c1` [Example 67, (Cis-3-{[5-[2-(4-cyano-phenyl)-2H-pyrazol-3-yl]-4-methyl-2-oxo-3-(3-trifluoromethyl-phenyl)-2,3-dihydro-imidazole-1-carbonyl]-amino}-cyclobutylmethyl)-trimethyl-ammonium benzene sulfonate]: less than 1 nM; `Cc1c(-c2ccnn2-c2ccc(C#N)cc2)n(C(=O)N[C@H]2C[C@H](C[N+](C)(C)C)C2)c(=O)n1-c1cccc(C(F)(F)F)c1` [Example 68, (Trans-3-{[5-[2-(4-cyano-phenyl)-2H-pyrazol-3-yl]-4-methyl-2-oxo-3-(3-trifluoromethyl-phenyl)-2,3-dihydro-imidazole-1-carbonyl]-amino}-cyclobutylmethyl)-trimethyl-ammonium benzene sulfonate]: less than 1 nM; `Cc1c(-c2ccnn2-c2ccc(C#N)cc2)n(C(=O)N[C@@H](C)C(=O)N2CCC([N+](C)(C)C)CC2)c(=O)n1-c1cccc(C(F)(F)F)c1` [Example 69, [1-((S)-2-{[5-[2-(4-Cyano-phenyl)-2H-pyrazol-3-yl]-4-methyl-2-oxo-3-(3-trifluoromethyl-phenyl)-2,3-dihydro-imidazole-1-carbonyl]-amino}-propionyl)-piperidin-4-yl]-trimethyl-ammonium benzene sulfonate]: less than 1 nM.
